Data as given in US20170035691A1, “FOOD MATRICES AND METHODS OF MAKING AND USING” (UNIVERSITY OF MASSACHUSETTS, priority 2014, published 2017).
Converted amounts (≈) assume the structure as drawn.

Experiments:
[1] = Rat feeding study: heptadecanoic acid and CoQ10 in duodenum, jejunum, ileum (Example 2); assay type: in vivo; conditions: for bioavailability in small intestinal tissues: encapsulated within digestible (corn oil) droplets with the smallest size, rat feeding study
Experimental: An animal feeding study was used to test the bioavailability of free fatty acids and CoQ10. Female Sprague Dawley rats (about 200-250 g) were purchased from Charles River Laboratories (Wilmington, Mass.). The Institutional Animal Care and Use Committee of the University of Massachusetts, Amherst, approved all animal procedures. Animals were housed in individual wire-bottomed cages in a windowless room with a 12-h light-dark cycle. After 10 days of adaptation, rats were fasted for 6 hours and 5 ml of emulsion was administered into a rat's stomach using a feeding needle (Roboz Surgical Instrument, Gaithersburg, Md.). Sample administration was conducted five times with 30 min intervals. Thirty min after the final administration, the rats were sacrificed by CO2 gas asphyxiation and blood samples were collected via cardiac puncture. Collected blood samples were allowed to clot for 30 min and then the serum layer was separated by centrifugation at 800 g for 20 min at 4° C. Serum was kept at −80° C. until analysis. The small intestine was flushed with phosphate buffered saline (PBS) five times, and the duodenum, jejunum, and ileum were collected. The intestine samples were kept at −80° C. until fatty acid composition and CoQ10 analyses. The in vivo experiment was carried out once, using three rats per sample analyzed.
Intestine extract was prepared by a method described previously by Tang, P. H., Miles, M. V., Miles, L., Quinlan, J., Wong, B., Wenisch, A., and Bove, K., “Measurement of reduced and oxidized coenzyme Q(9) and coenzyme Q(10) levels in mouse tissues by HPLC with coulometric detection”, Clinica Chimica Acta, 341(1-2):173-84 (2004), which is incorporated herein in its entirety. After thawing the intestine, approximately, 50 mg of intestine was weighed and 1 ml of ice cold 0.15M NaCl solution was added. Intestine sample (about 50 mg) was homogenized on ice and 50 μL of CoQ6 solution (Internal standard) and 25 μL of 1,4-benzoquione (5 mg/mL) solution was added to oxidize CoQ10. After 30 min. incubation at room temperature, 5 ml of 1-propanol was added and then mixed by vortexing for 1 min. Sample was centrifuged at 2,000 g for 5 min and the supernatant was filtered with a 0.1 μm disposable syringe filter (Celltreat, Shirley, Mass.). The oxidized CoQ10 concentration was standardized relative to the tissue weight.
Quantitative analysis was carried out using a high performance liquid chromatography system (Shimadzu Co. Japan) equipped with a pump (LC-10 AT), UV-visible detector (SPD-M10A), and controller (SCL-10A). A reverse phase C-18 column (ODS-2 Hypersil, 200×4.6 mm, 5 μm, Thermo scientific, Waltham, Mass.) was used. The mobile phase comprised of a mixture of 4.2 g sodium acetate anhydrous, 15 mL of glacial acetic acid, 15 mL 2-propanol, 830 mL methanol, and 140 ml hexane. The injection volume was 100 μl, the flow rate was 1 ml/min, UV detection was made at 275 nm and all analysis was performed at room temperature under isocratic conditions.
Lipids were extracted from samples (duodenum, jejunum, ileum) and blood using a standard method by Folch, J., Lees, M., and Stanley, G. H. S., “A simple method for the isolation and purification of total lipids from animal tissues”, Journal of Biological Chemistry, 226(1):497-509 (1957), which is incorporated herein in its entirety, and then the fatty acids were methylated prior to gas chromatography analysis as taught by Park, Y. and Pariza, M. W., “Evidence that commercial calf and horse sera can contain substantial amounts of trans-10,cis-12 conjugated linoleic acid”, Lipids, 33(8):817-19 (1998), which is incorporated herein in its entirety. Tridecenoic acid was used as an internal standard. Methyl esters of fatty acids were analyzed using a GC instrument (GC-17A, Shimadzu, Kyoto, Japan) fitted with a flame-ionization detector. […]

[2] = Curcumin solubility in curcumin-emulsion mixtures, spectrophotometric (Example 3); assay type: physicochemical; conditions: excipient emulsion, aqueous with cosolvent or surfactant or cyclodextrin, thermodynamic from solid
Experimental: Preparation of curcumin-emulsion, curcumin-oil, and curcumin-buffer mixtures. […] After incubation, selected samples were immediately placed in an ice water and then used for the following experiments. In some experiments, the curcumin was mixed with bulk corn oil or with buffer (PBS) solution rather than an emulsion.
1 mL of supernatant was then mixed with 5 mL chloroform, vortexed, and centrifuged at 1750 rpm for 10 min at ambient temperature. […] The two bottom chloroform layers were combined, and diluted to an appreciate concentration to be analyzed by a UV-VIS spectrophotometer at 419 nm (Ultraspec 3000 pro, GE Health Sciences, USA). A cuvette containing pure chloroform was used as a reference cell.

[3] = Cross-polarized light microscopy of curcumin crystals (Example 4); assay type: physicochemical
[4] = Curcumin solubility in curcumin-excipient emulsion mixtures of different droplet size (Example 4); assay type: physicochemical; conditions: for solubility at 10 min: aqueous with cosolvent or surfactant or cyclodextrin, thermodynamic from solid, after incubation at 100° C.; for amount of curcumin present within the emulsion: 30° C. for 30 min
Experimental: The resulting mixtures were then incubated at either 30° C. for 30 min or 100° C. for 10 min to simulate a salad dressing or a cooking sauce, respectively. After incubation, selected samples were immediately placed in an ice water and then used for the following experiments.
One millilitre of supernatant was then mixed with 5 mL chloroform, vortexed, and centrifuged at 1750 rpm (≈940×G) for 10 min at ambient temperature. […] The two bottom chloroform layers were combined, and diluted to a concentration suitable to be analysed by a UV-VIS spectrophotometer at 419 nm (Ultraspec 3000 pro, GE Health Sciences, Pittsburgh, Pa., USA). A cuvette containing pure chloroform was used as a reference cell.

[5] = Cross-polarized light microscopy of curcumin crystals in mixtures (Example 3); assay type: physicochemical
[6] = Curcumin oil-solubility in bulk corn oil by turbidity (Example 3); assay type: physicochemical; conditions: for dissolution of curcumin crystals in corn oil (turbidity versus time): 3 mg/mL
Experimental: In some experiments, the change in turbidity with time was measured at a fixed incubation temperature (30 or 100° C.) to determine the kinetics of isothermal dissolution.

[7] = Simulated gastrointestinal tract model: β-carotene bioaccessibility of nanoemulsions (Example 1); assay type: in vitro ADME; conditions: nanoemulsion, 0% corn oil (pure lemon oil system)
Experimental: Each β-carotene-enriched nanoemulsion was passed through a three-step simulated GIT model that consisted of a mouth, gastric, and small intestine phase. The particle size, charge, and microstructure of the samples were measured after incubation in each stage. […]
Small Intestine phase: Digesta samples (30 ml) obtained from the simulated gastric phase were placed in a beaker incubated in a water bath (37° C.) for 10 min and then adjusted to pH 7 with NaOH solution (0.05 or 1 M). […] The amount of free fatty acids released was calculated from the titration curves as described in Li, Y. and McClements, D. J., New Mathematical Model for Interpreting pH-Stat Digestion Profiles: Impact of Lipid Droplet Characteristics on in Vitro Digestibility”, Journal of Agricultural and Food Chemistry, 58:8085-92 (2010), which is incorporated herein in its entirety. The release of free fatty acids from the digestible oil (corn oil) was calculated by subtracting the FFA concentration determined at each time point for the pure lemon oil nanoemulsions from the FFA concentration determined for the nanoemulsions containing corn oil. […]

[8] = In vitro digestion model: bioaccessibility of β-carotene crystals mixed with emulsion or buffer (FIG. 6); assay type: in vitro ADME; conditions: β-carotene crystals mixed with oil-in-water emulsion (4% corn oil) versus buffer solution (PBS) without oil
Experimental: In this exemplary embodiment, β-carotene crystals were initially mixed with either an oil-in-water emulsion (containing 4% corn oil) or a buffer solution (PBS) containing no oil. The resulting mixtures were then passed through an in vitro gastrointestinal model that simulated the mouth, stomach, and small intestine. The bioaccessibility of β-carotene was determined by centrifuging the digesta resulting from a GIT model, and then measuring the fraction of β-carotene in the mixed micelle (middle phase). The GIT model used is described in Salvia-Trujillo, L.; Qian, C.; Martin-Belloso, O.; McClements, D. J., “Influence of Particle Size on Lipid Digestion and β-carotene Bioaccessibility in Emulsions and Nanoemulsions”, Food Chemistry, 141:1472-80 (2013), which is incorporated by reference herein in its entirety and for all purposes. In another instance, the method of these teachings also include using an animal feeding study to verify improvement of oral bioavailability when the predetermined pharmaceutical or nutraceutical is ingested with the food matrix. […]

COC1=C(OC)C(=O)C(C/C=C(\C)CC/C=C(\C)CC/C=C(\C)CC/C=C(\C)CC/C=C(\C)CC/C=C(\C)CC/C=C(\C)CC/C=C(\C)CC/C=C(\C)CCC=C(C)C)=C(C)C1=O [CoQ10, Coenzyme Q10]
bioavailability in small intestinal tissues [1]: highest | absorption of CoQ10 in all regions of the small intestine ([1]; rat, in vivo): some absorption | absorption of CoQ10 in duodenum ([1]; rat, in vivo): no significant differences | absorption of CoQ10 in jejunum and ileum ([1]; rat, in vivo): significantly higher

COc1cc(/C=C/C(=O)CC(=O)/C=C/c2ccc(O)c(OC)c2)ccc1O [curcumin]
solubility at 60 min ([2]; incubation for 60 min at 30° C.): ~54 µg/mL (≈ 147 µM) | solubility at 60 min ([2]; incubation for 60 min at 90° C. (so in the source)): ~218 µg/mL (≈ 592 µM) | dissolution of curcumin crystals in curcumin-excipient emulsion mixtures ([3]; all mixtures held at 100° C.): rapidly and completely dissolved | dissolution of curcumin crystals in curcumin-excipient emulsion mixtures ([3]; all mixtures incubated at 30° C.): did not completely dissolve | solubility at 10 min ([4]; excipient emulsion, large droplets): 230 µg/mL (≈ 624 µM) | solubility at 10 min ([4]; excipient emulsions, small and medium droplets): 270 to 280 µg/mL (≈ 733 to 760 µM) | amount of curcumin present within the emulsion ([4]; large emulsion): ~88 ± 26 µg/mL | amount of curcumin present within the emulsion ([4]; medium emulsion): ~104 ± 6 µg/mL | amount of curcumin present within the emulsion ([4]; small emulsion): around 66±1 μg/mL | dissolution of curcumin crystals in curcumin-emulsion mixtures ([5]; held at 100° C., any incubation time): rapidly and completely dissolved | dissolution of curcumin crystals in curcumin-emulsion mixtures ([5]; incubated at 30° C. from 10 to 120 min): did not completely dissolve | dissolution of curcumin crystals in corn oil (turbidity versus time) ([6]; held at 30° C.): only dissolved slowly | dissolution of curcumin crystals in corn oil (turbidity versus time) ([6]; held at 100° C.): rapidly dissolved | solubility ([6]; bulk corn oil, oil or lipid, thermodynamic from solid, ambient temperature, estimated from turbidity at 3 and 4 mg/mL): 3000 to 4000 µg/mL (≈ 8140 to 10900 µM)

CCCCCCCCCCCCCCCCC(=O)O [heptadecanoic acid, reference compound]
bioavailability in small intestinal tissues [1]: highest | absorption of heptadecanoic acid in duodenum and jejunum ([1]; rat, in vivo): slightly more absorption | absorption of heptadecanoic acid in duodenum, jejunum and ileum ([1]; rat, in vivo): significantly higher

CC1=C(/C=C/C(C)=C/C=C/C(C)=C/C=C/C=C(C)/C=C/C=C(C)/C=C/C2=C(C)CCCC2(C)C)C(C)(C)CCC1 [β-carotene]
bioaccessibility of β-carotene [7]: ≈ 5% | bioaccessibility of β-carotene [8]: increases the bioaccessibility
